# From US20130130903A1, “Suppression of Foliar and Soilborne Pathogens” (priority 2003, published 2013)
# Read-outs that look alike come from different tables or passages of the source.
# Legend:
# Ggt = conditions: New Zealand studies; green-bridge effect on couch grass; cited from earlier work
# [1] = system: Rhizoctonia solani isolate AG-8; test: Field yield of Rhizoctonia inoculated spring wheat after herbicide treatment; assay type: in vivo; conditions: for Yield: glyphosate on glyphosate res. wheat, Buctril/Harmony on sensitive wheat
# From the text: (§1) This example describes the response of glyphosate resistant and glyphosate sensitive spring wheat to inoculation with soil pathogens as judged by wheat yield. Inoculation simulates the green-bridge effect of dying weeds and volunteer in a standing wheat crop. The soil pathogens assessed were: Rhizoctonia solani isolate AG-8 and Gaeumannomyces graminis var. tritici. These pathogenic strains are prevalent in the Pacific Northwest and were isolated from the region. They have been maintained by the Department of Plant Pathology and USDA researchers at Washington State University.
# (§2) Near isogenic lines (glyphosate resistant and glyphosate sensitive) of Westbred 926 and Bobwhite were seeded using a no-till drill at three different sites (Lind, Davenport and Pullman, Wash.).
# (§3) To introduce the root pathogens into the wheat seed for distribution into the field, oat seeds, autoclaved and sterilized, were inoculated for each soilborne pathogen using isolated pathogen cultures. Oat seeds that were non-inoculated, but sterilized and autoclaved, served as a control. Following two weeks of pathogen growth, the inoculated oat seeds were dried down for 2 days and screened for potential contamination. To establish a green-bridge, a mixture of 15% barley and 20% oat inoculum seeds (by weight) were planted using a small plot no-till drill. One week after planting the introduced green-bridge, the wheat isolines were planted in rows adjacent to the barley green-bridge rows in a randomized, split-plot design, replicated in five randomized blocks. Inoculum treatment served as the main plot, and response to herbicides as the subplot factor.
# (§4) This example describes the effect of herbicide treatment on spring wheat, averaged over all disease treatments, planted as described in Example 1. The appropriate herbicide was applied to each trial once the plants reached the 4-5 leaf stage with a custom built hand-pulled sprayer outfitted with a boom with a length of 16 feet with spray shields on the side to minimize drift. In this manner, an entire plot was treated at once with the appropriate herbicide rate. Entries that were resistant to glyphosate were treated with ROUNDUP® brand herbicide (0.63 kg/ha), available from Monsanto, St. Louis, Mo. Herbicide sensitive and resistant entries were treated with a common broadleaf herbicide treatment (Buctril/Harmony) or a no-spray control. Introduced green-bridge barley and any other weeds were manually removed 7-10 days after spray treatment to simulate the time required for ROUNDUP to take effect and maintained weed-free conditions to provide an accurate comparison to commercial weed management strategies needed to assess potential herbicide/disease interactions. […]
# R. solani = conditions: cited from earlier work
# [2] = system: Rhizoctonia solani isolate AG-8 and Gaeumannomyces graminis var. tritici (averaged over all fungal inoculation treatments); test: Field yield of spring wheat after herbicide treatment, averaged over all fungal inoculation treatments; assay type: in vivo; conditions: for Yield: glyphosate (ROUNDUP 0.63 kg/ha) on glyphosate res. wheat, Buctril/Harmony on sensitive wheat, 4-5 leaf stage
# From the text: as §1, §2, §3
# (§5) This example describes the effect of herbicide treatment on spring wheat, averaged over all disease treatments, planted as described in Example 1. The appropriate herbicide was applied to each trial once the plants reached the 4-5 leaf stage with a custom built hand-pulled sprayer outfitted with a boom with a length of 16 feet with spray shields on the side to minimize drift. In this manner, an entire plot was treated at once with the appropriate herbicide rate. Entries that were resistant to glyphosate were treated with ROUNDUP® brand herbicide (0.63 kg/ha), available from Monsanto, St. Louis, Mo. Herbicide sensitive and resistant entries were treated with a common broadleaf herbicide treatment (Buctril/Harmony) or a no-spray control. Introduced green-bridge barley and any other weeds were manually removed 7-10 days after spray treatment to simulate the time required for ROUNDUP to take effect and maintained weed-free conditions to provide an accurate comparison to commercial weed management strategies needed to assess potential herbicide/disease interactions.
# non-inoculated wheat = test: Field yield of non-inoculated spring wheat after herbicide treatment; assay type: in vivo; conditions: for Yield: 2002, non-inoculated, glyphosate on glyphosate res. wheat, Buctril/Harmony on sensitive wheat
# From the text: as §1, §2, §3, §4
# stripe rust = test: Bobwhite NILs under natural stripe rust infection, Pullman 2002; assay type: in vivo, Puccinia striiformis; conditions: for Yield: Pullman 2002, cultivar Bobwhite (res.)
# From the text: as §1, §2, §3, §5
# This example describes the effect of herbicides on natural stripe rust infection of NILs of Bobwhite with and without glyphosate tolerance. The wheat was seeded and inoculated with Rhizoctonia and Ggt as described in Example 1. The yield results from the Pullman site are recorded in Table 6.
# soybean rust = test: Suppression of soybean rust on glyphosate resistant soybean lines; assay type: in vivo
# From the text: This example describes the suppression of soybean rust using glyphosate treatment of glyphosate resistant soybean varieties.
# Two different Roundup Ready soybean lines were used: Line 1 (purple flowers/grey pubescence) and Line 2 (white flowers/grey pubescence). Both lines are glyphosate resistant and have been classified as maturity group 3, with white or purple flowers and grey pubescence. The following treatments were used:
# Treatment 1: No glyphosate spray before or after inoculation
# Treatment 2: One application of glyphosate (48 oz./A) ([…] of active ingredient) three days before inoculation
# Treatment 3: Twice the amount of glyphosate as in Treatment 2 (96 oz./A) ([…] of active ingredient) applied three days before inoculation
# Treatment 4: One application of glyphosate (48 oz./A) three days before inoculation, and one application (48 oz./A) (1.5 kg/ha of active ingredient) when symptoms of soybean rust first appeared.
# Treatment 5: No glyphosate spray before inoculation, and one application (48 oz./A) (1.5 kg/ha of active ingredient) when symptoms of soybean rust first appeared.
smiles,measurement,setting,value
"O=C(O)CNCP(=O)(O)O [glyphosate, N-phosphonomethylglycine]",levels of infection of cereals with Ggt,Ggt,increases the levels of infection with Ggt
same,Yield,[1]; Davenport,29.0 bu/acre
same,Yield,[1]; Lind,14.0 bu/acre
same,Yield,[1]; Pullman,53.9 bu/acre
same,yield relative to untreated and Buctril/Harmony treated glyphosate sensitive wheat,[1]; glyphosate resistant wheat,enhanced yield at each location
same,grain yields of glyphosate-sensitive barley under R. solani,R. solani; glyphosate applied in the fall or three weeks prior to planting,no significant yield depression
same,grain yields of glyphosate-sensitive barley under R. solani,R. solani; glyphosate applied three days before planting,significantly reduced grain yields
same,Yield,[2]; Davenport,28.9 bu/acre
same,Yield,[2]; Lind,14.2 bu/acre
same,Yield,[2]; Pullman,56.5 bu/acre
same,grain produced versus glyphosate sensitive NILs treated with Buctril/Harmony Extra or the no spray control,"[2]; RoundUp Ready spring wheat, regardless of disease treatment or location",significantly (P=0.001) more grain
same,yield of glyphosate resistant wheat versus other treatments,"[2]; Table 2, each trial",higher yields in each trial
same,Yield,non-inoculated wheat; Davenport,29.1 bu/acre
same,Yield,non-inoculated wheat; Lind,14.2 bu/acre
same,Yield,non-inoculated wheat; Pullman,55.6 bu/acre
same,yield of glyphosate-resistant wheat lines,non-inoculated wheat; in the absence of additional pathogen inoculum,increases yield
same,stripe rust symptoms,stripe rust; Bobwhite cultivars under severe stripe rust conditions,only moderate stripe rust symptoms
same,Yield,stripe rust; inoculation Ggt,49.0 bu/acre
same,Yield,stripe rust; inoculation None,44.9 bu/acre
same,Yield,stripe rust; inoculation Rhizoctonia,40.0 bu/acre
same,yields of glyphosate resistant Bobwhite NILs,stripe rust; regardless of what pathogen had been introduced,superior yields
same,effect on soy rust,soybean rust; treatments 2 and 3: 48 oz./A or 96 oz./A three days before inoculation,dose-dependent effect on soy rust
same,effect on soybean infected with soy rust,soybean rust; treatments 4 and 5: 48 oz./A when symptoms of soybean rust first appeared,curative effect
